Experimental data as given in ChEMBL document CHEMBL3991601, “The target landscape of clinical kinase drugs” (Science, 2017).
Activity calls are given as the source filed them. For most assays here, no stated cut-off is given here; in the data, actives have a measured Kd and inactives only a lower limit.

What was measured:
[1] = molecular target: T1, ADP/ATP translocase 2 (Homo sapiens, UniProt P05141)
T1 sequence (P05141 whole entry): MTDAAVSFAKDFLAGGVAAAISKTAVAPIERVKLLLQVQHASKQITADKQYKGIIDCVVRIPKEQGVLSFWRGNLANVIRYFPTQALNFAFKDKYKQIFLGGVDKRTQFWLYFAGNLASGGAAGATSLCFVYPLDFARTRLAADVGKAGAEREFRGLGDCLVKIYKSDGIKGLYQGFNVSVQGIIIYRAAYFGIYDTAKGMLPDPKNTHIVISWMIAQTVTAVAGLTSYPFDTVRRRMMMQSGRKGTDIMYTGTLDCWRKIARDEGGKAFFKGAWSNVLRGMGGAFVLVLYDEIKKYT

[2] = molecular target: T2, Serine/threonine-protein kinase PLK4 (Homo sapiens, UniProt O00444)
T2 sequence (O00444 whole entry): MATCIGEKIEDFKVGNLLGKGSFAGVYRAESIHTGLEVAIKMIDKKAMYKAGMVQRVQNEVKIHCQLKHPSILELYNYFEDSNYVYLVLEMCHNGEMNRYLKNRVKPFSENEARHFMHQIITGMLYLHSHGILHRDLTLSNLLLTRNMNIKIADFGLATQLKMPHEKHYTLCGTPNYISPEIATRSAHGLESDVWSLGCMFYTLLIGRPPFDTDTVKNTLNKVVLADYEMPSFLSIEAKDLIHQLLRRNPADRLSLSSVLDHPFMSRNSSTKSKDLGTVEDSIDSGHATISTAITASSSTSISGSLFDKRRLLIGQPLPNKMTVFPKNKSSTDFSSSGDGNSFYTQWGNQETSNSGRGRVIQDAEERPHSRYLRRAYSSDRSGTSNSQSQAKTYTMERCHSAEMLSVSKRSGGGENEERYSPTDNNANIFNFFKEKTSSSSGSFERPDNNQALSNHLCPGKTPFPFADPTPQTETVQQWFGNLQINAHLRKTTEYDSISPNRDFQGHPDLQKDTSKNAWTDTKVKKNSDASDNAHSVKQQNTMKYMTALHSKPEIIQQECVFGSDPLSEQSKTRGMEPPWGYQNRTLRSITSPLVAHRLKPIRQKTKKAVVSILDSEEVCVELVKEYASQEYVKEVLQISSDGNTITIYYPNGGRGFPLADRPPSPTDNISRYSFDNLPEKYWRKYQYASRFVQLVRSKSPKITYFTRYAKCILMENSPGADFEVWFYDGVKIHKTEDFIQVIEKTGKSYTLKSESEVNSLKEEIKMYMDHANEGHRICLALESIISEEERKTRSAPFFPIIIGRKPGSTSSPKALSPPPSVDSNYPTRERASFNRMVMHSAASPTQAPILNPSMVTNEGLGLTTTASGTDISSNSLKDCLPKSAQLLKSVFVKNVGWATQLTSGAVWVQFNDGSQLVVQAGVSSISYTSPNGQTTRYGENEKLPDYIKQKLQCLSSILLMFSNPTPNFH

[3] = molecular target: T3, Rab-like protein 3 (Homo sapiens, UniProt Q5HYI8)
T3 sequence (Q5HYI8 whole entry): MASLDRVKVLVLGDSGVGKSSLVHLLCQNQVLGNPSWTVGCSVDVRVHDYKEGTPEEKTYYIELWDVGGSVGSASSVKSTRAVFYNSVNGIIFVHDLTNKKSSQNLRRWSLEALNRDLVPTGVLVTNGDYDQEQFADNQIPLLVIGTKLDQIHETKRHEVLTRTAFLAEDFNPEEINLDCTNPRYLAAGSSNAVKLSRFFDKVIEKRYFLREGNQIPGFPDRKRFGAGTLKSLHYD

[4] = molecular target: Tyrosine-protein kinase BTK (Homo sapiens, UniProt Q06187)
[5] = molecular target: Protein kinase C alpha type (Homo sapiens, UniProt P17252)
[6] = molecular target: Serine/threonine-protein kinase 16 (Homo sapiens, UniProt O75716)
[7] = molecular target: T4, Serine/threonine-protein kinase Chk1 (Homo sapiens, UniProt O14757)
T4 sequence (O14757 whole entry): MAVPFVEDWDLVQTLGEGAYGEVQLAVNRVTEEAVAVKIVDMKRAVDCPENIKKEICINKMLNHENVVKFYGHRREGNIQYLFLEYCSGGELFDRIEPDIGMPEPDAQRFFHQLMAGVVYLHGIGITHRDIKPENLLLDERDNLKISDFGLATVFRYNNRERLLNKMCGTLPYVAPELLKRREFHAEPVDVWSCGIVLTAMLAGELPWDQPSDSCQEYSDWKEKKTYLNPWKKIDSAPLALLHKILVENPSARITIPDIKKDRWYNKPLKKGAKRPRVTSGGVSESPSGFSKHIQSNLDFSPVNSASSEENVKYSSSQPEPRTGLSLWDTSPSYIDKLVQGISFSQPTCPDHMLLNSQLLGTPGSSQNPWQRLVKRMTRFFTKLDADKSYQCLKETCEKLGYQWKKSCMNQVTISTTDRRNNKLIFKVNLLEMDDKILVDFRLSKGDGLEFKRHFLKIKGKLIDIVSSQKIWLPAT

[8] = molecular target: T5, Serine/threonine-protein kinase 3 (Homo sapiens, UniProt Q13188)
T5 sequence (Q13188 whole entry): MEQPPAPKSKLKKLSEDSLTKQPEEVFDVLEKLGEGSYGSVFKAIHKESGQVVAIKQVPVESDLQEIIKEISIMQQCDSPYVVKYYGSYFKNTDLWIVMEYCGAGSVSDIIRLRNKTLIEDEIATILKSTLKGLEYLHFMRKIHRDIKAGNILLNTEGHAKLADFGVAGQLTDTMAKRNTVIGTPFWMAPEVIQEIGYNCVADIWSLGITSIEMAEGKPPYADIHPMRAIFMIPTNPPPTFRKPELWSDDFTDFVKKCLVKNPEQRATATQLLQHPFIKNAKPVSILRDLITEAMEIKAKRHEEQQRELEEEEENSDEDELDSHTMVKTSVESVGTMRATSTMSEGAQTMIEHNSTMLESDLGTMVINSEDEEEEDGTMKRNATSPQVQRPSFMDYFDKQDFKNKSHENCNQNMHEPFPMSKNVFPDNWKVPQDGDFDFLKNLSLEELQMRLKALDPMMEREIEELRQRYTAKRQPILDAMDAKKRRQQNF

[9] = molecular target: cAMP-dependent protein kinase catalytic subunit gamma (Homo sapiens, UniProt P22612)
Chain of cAMP-dependent protein kinase catalytic subunit gamma (P22612 whole entry): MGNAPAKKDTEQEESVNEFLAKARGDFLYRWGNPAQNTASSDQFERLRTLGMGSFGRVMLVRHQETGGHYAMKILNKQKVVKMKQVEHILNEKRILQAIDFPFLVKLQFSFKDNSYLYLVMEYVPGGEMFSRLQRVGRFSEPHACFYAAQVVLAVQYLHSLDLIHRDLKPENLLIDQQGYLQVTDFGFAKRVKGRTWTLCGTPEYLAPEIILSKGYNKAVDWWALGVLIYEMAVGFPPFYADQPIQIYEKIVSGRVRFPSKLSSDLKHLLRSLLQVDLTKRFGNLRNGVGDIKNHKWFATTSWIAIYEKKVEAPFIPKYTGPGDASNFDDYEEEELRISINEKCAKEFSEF

Chain of Serine/threonine-protein kinase 16 (O75716 whole entry): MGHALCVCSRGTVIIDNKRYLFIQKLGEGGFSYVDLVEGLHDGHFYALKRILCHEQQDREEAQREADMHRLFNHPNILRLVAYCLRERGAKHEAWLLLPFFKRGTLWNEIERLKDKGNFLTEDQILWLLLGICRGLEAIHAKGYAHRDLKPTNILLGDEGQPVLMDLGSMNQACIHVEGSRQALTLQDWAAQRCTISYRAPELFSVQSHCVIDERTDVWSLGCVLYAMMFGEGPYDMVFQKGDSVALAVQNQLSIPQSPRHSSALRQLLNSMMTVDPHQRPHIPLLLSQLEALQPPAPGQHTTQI
Chain of Tyrosine-protein kinase BTK (Q06187 whole entry): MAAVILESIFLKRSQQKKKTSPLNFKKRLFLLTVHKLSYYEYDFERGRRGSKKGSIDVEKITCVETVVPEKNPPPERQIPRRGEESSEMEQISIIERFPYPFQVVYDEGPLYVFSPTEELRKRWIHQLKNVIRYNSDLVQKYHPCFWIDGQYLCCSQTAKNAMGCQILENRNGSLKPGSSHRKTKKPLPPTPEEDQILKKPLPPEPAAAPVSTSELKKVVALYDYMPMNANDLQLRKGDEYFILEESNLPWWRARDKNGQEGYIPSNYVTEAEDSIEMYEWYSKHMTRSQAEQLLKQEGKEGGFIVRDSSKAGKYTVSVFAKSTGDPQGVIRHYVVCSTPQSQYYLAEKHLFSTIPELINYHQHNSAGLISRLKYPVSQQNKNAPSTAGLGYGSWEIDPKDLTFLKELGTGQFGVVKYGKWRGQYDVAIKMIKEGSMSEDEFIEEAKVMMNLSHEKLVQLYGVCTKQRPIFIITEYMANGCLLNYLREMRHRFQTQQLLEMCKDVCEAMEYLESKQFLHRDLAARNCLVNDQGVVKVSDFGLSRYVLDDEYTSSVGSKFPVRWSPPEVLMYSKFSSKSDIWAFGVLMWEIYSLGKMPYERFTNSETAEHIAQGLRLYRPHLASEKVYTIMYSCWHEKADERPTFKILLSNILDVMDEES

SMILES	Kd [1]	Kd [2]	Kd [3]	Kd [4]	Kd [5]	Kd [6]	Kd [7]	Kd [8]	Kd [9]
Cn1ncc(Cl)c1-c1cc(C(=O)N[C@H](CN)Cc2cccc(F)c2)sc1Cl [AFURESERTIB]	> 30 µM (inactive)	> 30 µM (inactive)	> 30 µM (inactive)	> 30 µM (inactive)	21.4 µM (active)	> 30 µM (inactive)	> 30 µM (inactive)	> 30 µM (inactive)	
CNS(=O)(=O)Nc1nccc(Cc2c(C)c3ccc(Oc4ncccn4)cc3oc2=O)c1F [AVUTOMETINIB]	> 30 µM (inactive)	> 30 µM (inactive)	> 30 µM (inactive)	> 30 µM (inactive)	> 30 µM (inactive)	> 30 µM (inactive)	> 30 µM (inactive)	> 30 µM (inactive)	
CCc1cnn2c(NCc3ccc[n+]([O-])c3)cc(N3CCCC[C@H]3CCO)nc12 [DINACICLIB]	> 30 µM (inactive)	> 30 µM (inactive)	> 30 µM (inactive)		> 30 µM (inactive)	> 30 µM (inactive)		> 30 µM (inactive)	> 30 µM (inactive)
CCCS(=O)(=O)Nc1ccc(F)c(C(=O)c2c[nH]c3ncc(-c4ccc(Cl)cc4)cc23)c1F [VEMURAFENIB]	> 30 µM (inactive)	> 30 µM (inactive)	> 30 µM (inactive)	> 30 µM (inactive)	> 30 µM (inactive)	> 30 µM (inactive)	> 30 µM (inactive)	> 30 µM (inactive)	
CNC(=O)c1ccc(C)c(-n2c(C)cc(OCc3ccc(F)cc3F)c(Br)c2=O)c1 [PH-797804]	> 30 µM (inactive)	> 30 µM (inactive)	> 30 µM (inactive)	> 30 µM (inactive)	> 30 µM (inactive)	> 30 µM (inactive)	> 30 µM (inactive)	> 30 µM (inactive)	
C[C@@H](c1ccc2nccn2c1)n1nnc2ncc(-c3cnn(C)c3)nc21 [SAVOLITINIB]	> 30 µM (inactive)		> 30 µM (inactive)	> 30 µM (inactive)	> 30 µM (inactive)	> 30 µM (inactive)	> 30 µM (inactive)	> 30 µM (inactive)	> 30 µM (inactive)
CN1CCC(COc2cnc(-c3cccc(Cn4nc(-c5cccc(C#N)c5)ccc4=O)c3)nc2)CC1 [TEPOTINIB]	> 30 µM (inactive)	> 30 µM (inactive)		> 30 µM (inactive)	> 30 µM (inactive)	> 30 µM (inactive)		> 30 µM (inactive)	> 30 µM (inactive)
Cc1cn(-c2cc(NC(=O)c3ccc(C)c(Nc4nccc(-c5cccnc5)n4)c3)cc(C(F)(F)F)c2)cn1 [NILOTINIB]	> 30 µM (inactive)		> 30 µM (inactive)		> 30 µM (inactive)				> 30 µM (inactive)
Cc1cc(Nc2cc(N3CCN(C)CC3)nc(/C=C/c3ccccc3)n2)n[nH]1 [ENMD-2076]	> 30 µM (inactive)			> 30 µM (inactive)	> 30 µM (inactive)	0.702 µM (active)			> 30 µM (inactive)
OCCn1cc(-c2cnc3nnn(Cc4ccc5ncccc5c4)c3n2)cn1 [PF-04217903]	> 30 µM (inactive)	> 30 µM (inactive)	> 30 µM (inactive)		> 30 µM (inactive)	> 30 µM (inactive)		> 30 µM (inactive)	
CC[C@@H]1C(=O)N(C)c2cnc(Nc3ccc(C(=O)N[C@H]4CC[C@H](N5CCN(CC6CC6)CC5)CC4)cc3OC)nc2N1C(C)C [VOLASERTIB]	> 30 µM (inactive)	> 30 µM (inactive)	> 30 µM (inactive)	> 30 µM (inactive)	> 30 µM (inactive)	> 30 µM (inactive)	> 30 µM (inactive)	> 30 µM (inactive)	
O=C(Nc1cccc(Cl)c1)Nc1ncc(CCNc2ncnc3ccsc23)s1 [SNS-314]	> 30 µM (inactive)		> 30 µM (inactive)		> 30 µM (inactive)	> 30 µM (inactive)			
Cc1nc(N)sc1-c1ccnc(Nc2ccc(N3CCOCC3)cc2)n1 [CYC-116]	> 30 µM (inactive)		> 30 µM (inactive)		> 30 µM (inactive)	0.21 µM (active)			
COc1cc2nccc(Oc3ccc(NC(=O)NC4CC4)c(Cl)c3)c2cc1C(N)=O [LENVATINIB]	> 30 µM (inactive)		> 30 µM (inactive)		> 30 µM (inactive)	> 30 µM (inactive)	> 30 µM (inactive)	> 30 µM (inactive)	> 30 µM (inactive)
COCCNCc1ccc(-c2cc3nccc(Oc4ccc(NC(=S)NC(=O)Cc5ccc(F)cc5)cc4F)c3s2)nc1 [GLESATINIB]	> 30 µM (inactive)	1.42 µM (active)	> 30 µM (inactive)	> 30 µM (inactive)	> 30 µM (inactive)	> 30 µM (inactive)	> 30 µM (inactive)	> 30 µM (inactive)	
CCn1c(-c2nonc2N)nc2c(C#CC(C)(C)O)ncc(OC[C@H]3CCCNC3)c21 [GSK-690693]	> 30 µM (inactive)		> 30 µM (inactive)		0.566 µM (active)				> 30 µM (inactive)
O=C(O)[C@]1(Cc2cccc(Nc3nccs3)n2)CC[C@@H](Oc2cccc(Cl)c2F)CC1 [MK-5108]	> 30 µM (inactive)	0.183 µM (active)	> 30 µM (inactive)	> 30 µM (inactive)	> 30 µM (inactive)	> 30 µM (inactive)	> 30 µM (inactive)	2.27 µM (active)	
CN1CCN(c2ccc3nc(-c4c(N)c5c(F)cccc5[nH]c4=O)[nH]c3c2)CC1 [DOVITINIB]	> 30 µM (inactive)		> 30 µM (inactive)		> 30 µM (inactive)				> 30 µM (inactive)
Nc1nc(N)c2nc(-c3cccc(O)c3)c(-c3cccc(O)c3)nc2n1 [TG100-115]	> 30 µM (inactive)		> 30 µM (inactive)		> 30 µM (inactive)				> 30 µM (inactive)
COc1cc(CCc2cc(NC(=O)c3ccc(N4C[C@@H](C)N[C@@H](C)C4)cc3)n[nH]2)cc(OC)c1 [AZD-4547]	> 30 µM (inactive)	> 30 µM (inactive)	> 30 µM (inactive)	> 30 µM (inactive)	> 30 µM (inactive)	> 30 µM (inactive)	> 30 µM (inactive)	> 30 µM (inactive)	
